What was measured:
Format in all cases: biochemical
[1] = target: T1, Sc terpene synthase β (Sorangium cellulosum, UniProt Z9XJ57G830); assay: GC-MS of product after alkaline phosphatase (BAP) treatment; settings: […] FPP, […] enzyme, […] Tris-HCl pH […] MgCl2 (Mg2+ not required), […] °C; cyclization to a diphosphate, product seen only after BAP
T1 construct: codon-optimized, N-terminal His8 tag kept, pET28b(+), E. coli BL21 Star (DE3), TALON; single β domain with DxDVT134-138 motif
T1 sequence (Z9XJ57G830 1-342): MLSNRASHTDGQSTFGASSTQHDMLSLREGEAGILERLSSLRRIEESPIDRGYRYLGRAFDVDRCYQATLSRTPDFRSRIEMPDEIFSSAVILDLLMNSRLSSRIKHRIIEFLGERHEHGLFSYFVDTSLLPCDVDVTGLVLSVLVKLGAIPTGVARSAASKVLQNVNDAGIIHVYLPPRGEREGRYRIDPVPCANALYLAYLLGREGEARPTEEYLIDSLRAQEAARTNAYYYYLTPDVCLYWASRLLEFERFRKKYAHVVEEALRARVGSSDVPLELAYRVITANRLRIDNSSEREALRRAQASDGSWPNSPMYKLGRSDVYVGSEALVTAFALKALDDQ

[2] = target: T2, FeFPPS (Flavivirga eckloniae, UniProt A0A2K9PVX7); assay: GC-MS of farnesol after alkaline phosphatase (BAP) treatment; settings: 100 μM GPP with 100 μM IPP; otherwise same
T2 construct: gene C1H87_21960; codon-optimized, N-terminal His8 tag kept, pET28b(+), E. coli BL21 Star (DE3), TALON
T2 sequence (A0A2K9PVX7 1-289): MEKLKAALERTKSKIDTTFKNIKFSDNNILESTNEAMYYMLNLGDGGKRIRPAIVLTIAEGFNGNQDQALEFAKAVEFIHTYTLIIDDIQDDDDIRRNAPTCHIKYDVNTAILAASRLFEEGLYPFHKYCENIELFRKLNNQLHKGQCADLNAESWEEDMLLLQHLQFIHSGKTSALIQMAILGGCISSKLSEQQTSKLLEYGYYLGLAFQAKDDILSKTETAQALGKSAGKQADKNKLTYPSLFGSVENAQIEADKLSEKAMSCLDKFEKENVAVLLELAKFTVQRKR

[3] = target: T3, AsFPPS (Aquimarina spongiae, UniProt A0A1M6CXH4); assay: as above; settings: 100 μM GPP with 100 μM IPP; otherwise same
T3 construct: gene SAMN04488508_102321; codon-optimized, N-terminal His8 tag kept, pET28b(+), E. coli BL21 Star (DE3), TALON
T3 sequence (A0A1M6CXH4 1-289): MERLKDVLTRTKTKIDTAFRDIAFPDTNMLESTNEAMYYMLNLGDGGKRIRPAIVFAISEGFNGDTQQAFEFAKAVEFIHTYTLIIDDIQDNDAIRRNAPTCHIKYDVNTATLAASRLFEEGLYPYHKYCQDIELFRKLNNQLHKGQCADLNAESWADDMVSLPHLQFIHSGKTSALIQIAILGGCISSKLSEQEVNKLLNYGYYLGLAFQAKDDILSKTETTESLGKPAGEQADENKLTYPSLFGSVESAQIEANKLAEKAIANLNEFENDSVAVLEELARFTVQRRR

SMILES | GC-MS of product after alkaline phosphatase (BAP) treatment [1] | GC-MS of farnesol after alkaline phosphatase (BAP) treatment [2] | GC-MS of farnesol after alkaline phosphatase (BAP) treatment [3]
CC(C)=CCC/C(C)=C/CC/C(C)=C/COP(=O)(O)OP(=O)(O)O [farnesyl pyrophosphate] | Sc terpene synthase β is monofunctional and performs only the cyclization step of FPP |  | 
CC(C)=CCC/C(C)=C/COP(=O)(O)OP(=O)(O)O [geranyl pyrophosphate] |  | dimethylallyl pyrophosphate (DMAPP) or geranyl pyrophosphate (GPP) as an allylic substrate | dimethylallyl pyrophosphate (DMAPP) or geranyl pyrophosphate (GPP) as an allylic substrate

— publication doi:10.1101/2025.09.20.677545v1, “Parallel Evolution of a Drimenol Biosynthetic Gene Cluster Unique to Marine Bacteria” (biorxiv, 2025)
